{
  "source": "ChEMBL document CHEMBL1136185",
  "about": "“Linearized and truncated microcystin analogues as inhibitors of protein phosphatases 1 and 2A” (Bioorg Med Chem Lett, 2003)",
  "data": [
    {"target": "T1, Serine-threonine protein phosphatase 2A regulatory subunit (Gallus gallus, UniProt Q8AWE3)", "T1 sequence (Q8AWE3 whole entry)": "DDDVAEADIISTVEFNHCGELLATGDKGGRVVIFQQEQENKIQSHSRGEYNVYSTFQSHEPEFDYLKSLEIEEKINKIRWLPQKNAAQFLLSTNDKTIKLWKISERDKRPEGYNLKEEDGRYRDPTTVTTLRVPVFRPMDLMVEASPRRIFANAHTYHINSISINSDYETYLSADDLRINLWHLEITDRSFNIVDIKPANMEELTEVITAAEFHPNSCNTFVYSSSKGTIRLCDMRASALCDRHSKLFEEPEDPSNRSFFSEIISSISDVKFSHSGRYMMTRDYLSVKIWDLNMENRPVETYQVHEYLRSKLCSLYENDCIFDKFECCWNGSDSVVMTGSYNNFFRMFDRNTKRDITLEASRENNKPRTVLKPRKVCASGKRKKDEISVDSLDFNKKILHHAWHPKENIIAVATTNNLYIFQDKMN", "experiment": "Inhibitory concentration required against protein phosphatase 2A using pNPP assay", "units": {"IC50": "µM"}, "values": [
      {"smiles": "CO[C@@H](Cc1ccccc1)[C@@H](C)/C=C(C)/C=C/[C@H](NC(C)=O)[C@H](C)C(=O)N[C@H](CCC(=O)N(C)CC(=O)N[C@H](C)C(=O)O)C(=O)O", "IC50": 135},
      {"smiles": "C=C(C(=O)N[C@H](C)C(=O)N[C@@H](CC(C)C)C(=O)O)N(C)C(=O)CC[C@@H](NC(=O)[C@@H](C)[C@H](/C=C/C(C)=C/[C@H](C)[C@H](Cc1ccccc1)OC)NC(C)=O)C(=O)O", "IC50": 16},
      {"smiles": "CO[C@@H](Cc1ccccc1)[C@@H](C)/C=C(C)/C=C/[C@H](NC(C)=O)[C@H](C)C(=O)N[C@H](CCC(=O)N(C)CC(=O)N[C@H](C)C(=O)N[C@@H](CC(C)C)C(=O)O)C(=O)O", "IC50": 17},
      {"smiles": "COC(=O)[C@@H](CCC(=O)N(C)C)NC(=O)[C@@H](C)[C@H](/C=C/C(C)=C/[C@H](C)[C@H](Cc1ccccc1)OC)NC(C)=O", "IC50": "> 100"},
      {"smiles": "CO[C@@H](Cc1ccccc1)[C@@H](C)/C=C(C)/C=C/[C@H](NC(C)=O)[C@H](C)C(=O)N[C@H](CCC(=O)N(C)C)C(=O)O", "IC50": 20},
      {"smiles": "CO[C@@H](Cc1ccccc1)[C@@H](C)/C=C(C)/C=C/[C@H](N)[C@H](C)C(=O)N[C@H](CCC(=O)N(C)CC(=O)N[C@H](C)C(=O)O)C(=O)O", "IC50": 270}
    ]}
  ]
}
